Data from patent US11524021B2, “Use of ginsenoside M1 for manufacturing medicament for treating oral cancer” (priority 2018, dated 2022).

Experiments:
[1] = system: human oral cancer OECM-1 cells; assay: Viability of human oral cancer OECM-1 cells, Trypan blue exclusion; assay type: cell-based; details: 5˜20 μg/ml, 24 h
Procedure: Human oral cancer cell line SAS cells (FIG. 1A) or OECM-1 cells (FIG. 1B) were incubated for 24 h with ginsenoside M1 (5˜20 μg/ml), ginsenoside Rh2 (5˜20 μg/ml) or vehicle (0.1% DMSO). The live cell numbers were counted by Trypan blue exclusion method. The data were expressed as mean±SD; n=3. *, ** and *** indicate a significant difference at the level of p<0.05, p<0.01 and p<0.001, respectively, compared to vehicle-control cells. (One-way ANOVA with Dunnett's multiple comparisons test).
Plate 5×10^5 human oral cancer cells SAS per 6-cm dish in 2 ml of culture medium and were grown overnight at 37° C. in a 5% CO2 incubator. The cells were incubated for 24 h with ginsenoside M1 (5˜20 μg/ml), ginsenoside Rh2 (5˜20 μg/ml) or vehicle. Each group contains a final DMSO concentration of 0.1%. Thereafter, the cell numbers were counted by Trypan blue exclusion method. […] The data were expressed as mean±SD; n=3. *, ** and *** indicate a significant difference at the level of p<0.05, p<0.01 and p<0.001, respectively, compared to vehicle-control cells. (One-way ANOVA with Dunnett's multiple comparisons test).

[2] = system: human oral cancer cells OECM-1; assay: Cell cycle distribution, PI staining by flow cytometry; assay type: cell-based; details: 10˜20 μg/ml, 24 h
Procedure: Human oral cancer cell line OECM-1 cells were incubated for 24 h with ginsenoside M1 (10˜20 μg/ml), 50 μM cistaplatin (CDDP) or vehicle (0.1% DMSO). (FIG. 3A) The apoptotic DNA breaks was assayed by terminal deoxynucleotidyl transferase dUTP nick end labeling (TUNEL) assay using flow cytometry. (FIG. 3B) The cell cycle distribution was determined by PI staining using flow cytometry. (FIG. 3C) The apoptosis level was measured by PI/Annexin V double staining assay using flow cytometry. (FIG. 3D) The activation levels of caspase-9 and caspase-3 were measured by detecting the degradation of pro-caspase-9 and pro-caspase-3 using Western blotting. […] (One-way ANOVA with Dunnett's multiple comparisons test).
To gain further insight into the mode of action of ginsenoside M1, three assays targeting hallmarks of apoptosis, namely (1) the apoptotic DNA breaks assayed by terminal deoxynucleotidyl transferase dUTP nick end labeling (TUNEL) assay, (2) the cell cycle assayed by flow cytometry after propidium iodide (PI)-staining nuclei, (3) the PI/Annexin V double staining assay, and (4) caspase activation were performed. Plate 1×10^6 human oral cancer cells OECM-1 per 6-cm dish in 2 ml of culture medium and were grown overnight at 37° C. in a 5% CO2 incubator. The cells were incubated for 24 h with ginsenoside M1 (10˜20 μg/ml), 50 μM cistaplatin (CDDP) or vehicle. Each group contains a final DMSO concentration of 0.1%. Thereafter, three assays were performed. […] The cells in sub-G1 phase increased after treatment with ginsenoside M1 and CDDP. (FIG. 3B). […] The data were expressed as mean±SD; n=3. ** and *** indicate a significant difference at the level of p<0.01 and p<0.001, respectively, compared to vehicle-control cells. (One-way ANOVA with Dunnett's multiple comparisons test).

CC(C)=CCC[C@](C)(O[C@@H]1OC(CO)[C@@H](O)[C@@H](O)C1O)[C@H]1CC[C@]2(C)C1[C@H](O)CC1[C@@]3(C)CC[C@H](O)C(C)(C)C3CC[C@]12C (stereo partly drawn) [ginsenoside M1, 20-O-β-D-glucopyranosyl-20(S)-protopanaxadiol]
cell numbers of human oral cancer OECM-1 cells [1]: dose-dependently inhibited | cells in sub-G1 phase [2]: increased | cells in G1 phase ([2]; vs control cells): increased in a concentration-dependent manner | percentage of cells in S and G2/M phase ([2]; vs control cells): decreasing
